We go through five compounds from patent publication US20080248040A1, “Nucleic Acid Molecules Encoding Novel Human Low-Voltage Activated Calcium Channel Proteins, Designed-Alpha 1I-1 and Alpha 1I-2, Encoded Proteins and Methods of Use Thereof” (priority 2003, published 2008).

Test [1] concerns the target T1, human calcium channel α1I subunit (α1I channel) (Homo sapiens, UniProt Q9P0X4, I1040V).
T1 construct: expressed in transfected cells
Description: Calcium influx measured by FLIPR in B21 cells. Format: cell-based. Conditions: for IC50: B21 cell induced by 0.1 uM tetracycline, mean ± S.E., n=3, read-out: IC50 for inhibition of calcium influx. How it is done: Intracellular calcium concentration was monitored by the FLIPR™ technique (Molecular Devices, Sunnyvale, Calif.). Briefly, the cells were seeded into black 96 well plates with clear bottoms at a density of 35,000 cells/well and cultured for 5 hr.

Test [2] concerns the target α1I T-type calcium channel (Homo sapiens, UniProt Q9P0X4, I1040V). Briefly: Whole-cell patch clamp (voltage-clamp) recordings on the B21 cell line.
Test [3] deals with T-type currents in thalamic (ventrobasal complex) neurons. Conditions: physiologically relevant doses; Coulter et al. 1989; cited from earlier work.
For test [4], the system named is T-type Ca^2+ current in DRG neurons. Conditions: freshly dissected DRG neurons of adult rats; Todorovic and Lingle 1998; cited from earlier work.

T1 sequence (Q9P0X4 1-1981 isoform Q9P0X4-3 I1005V): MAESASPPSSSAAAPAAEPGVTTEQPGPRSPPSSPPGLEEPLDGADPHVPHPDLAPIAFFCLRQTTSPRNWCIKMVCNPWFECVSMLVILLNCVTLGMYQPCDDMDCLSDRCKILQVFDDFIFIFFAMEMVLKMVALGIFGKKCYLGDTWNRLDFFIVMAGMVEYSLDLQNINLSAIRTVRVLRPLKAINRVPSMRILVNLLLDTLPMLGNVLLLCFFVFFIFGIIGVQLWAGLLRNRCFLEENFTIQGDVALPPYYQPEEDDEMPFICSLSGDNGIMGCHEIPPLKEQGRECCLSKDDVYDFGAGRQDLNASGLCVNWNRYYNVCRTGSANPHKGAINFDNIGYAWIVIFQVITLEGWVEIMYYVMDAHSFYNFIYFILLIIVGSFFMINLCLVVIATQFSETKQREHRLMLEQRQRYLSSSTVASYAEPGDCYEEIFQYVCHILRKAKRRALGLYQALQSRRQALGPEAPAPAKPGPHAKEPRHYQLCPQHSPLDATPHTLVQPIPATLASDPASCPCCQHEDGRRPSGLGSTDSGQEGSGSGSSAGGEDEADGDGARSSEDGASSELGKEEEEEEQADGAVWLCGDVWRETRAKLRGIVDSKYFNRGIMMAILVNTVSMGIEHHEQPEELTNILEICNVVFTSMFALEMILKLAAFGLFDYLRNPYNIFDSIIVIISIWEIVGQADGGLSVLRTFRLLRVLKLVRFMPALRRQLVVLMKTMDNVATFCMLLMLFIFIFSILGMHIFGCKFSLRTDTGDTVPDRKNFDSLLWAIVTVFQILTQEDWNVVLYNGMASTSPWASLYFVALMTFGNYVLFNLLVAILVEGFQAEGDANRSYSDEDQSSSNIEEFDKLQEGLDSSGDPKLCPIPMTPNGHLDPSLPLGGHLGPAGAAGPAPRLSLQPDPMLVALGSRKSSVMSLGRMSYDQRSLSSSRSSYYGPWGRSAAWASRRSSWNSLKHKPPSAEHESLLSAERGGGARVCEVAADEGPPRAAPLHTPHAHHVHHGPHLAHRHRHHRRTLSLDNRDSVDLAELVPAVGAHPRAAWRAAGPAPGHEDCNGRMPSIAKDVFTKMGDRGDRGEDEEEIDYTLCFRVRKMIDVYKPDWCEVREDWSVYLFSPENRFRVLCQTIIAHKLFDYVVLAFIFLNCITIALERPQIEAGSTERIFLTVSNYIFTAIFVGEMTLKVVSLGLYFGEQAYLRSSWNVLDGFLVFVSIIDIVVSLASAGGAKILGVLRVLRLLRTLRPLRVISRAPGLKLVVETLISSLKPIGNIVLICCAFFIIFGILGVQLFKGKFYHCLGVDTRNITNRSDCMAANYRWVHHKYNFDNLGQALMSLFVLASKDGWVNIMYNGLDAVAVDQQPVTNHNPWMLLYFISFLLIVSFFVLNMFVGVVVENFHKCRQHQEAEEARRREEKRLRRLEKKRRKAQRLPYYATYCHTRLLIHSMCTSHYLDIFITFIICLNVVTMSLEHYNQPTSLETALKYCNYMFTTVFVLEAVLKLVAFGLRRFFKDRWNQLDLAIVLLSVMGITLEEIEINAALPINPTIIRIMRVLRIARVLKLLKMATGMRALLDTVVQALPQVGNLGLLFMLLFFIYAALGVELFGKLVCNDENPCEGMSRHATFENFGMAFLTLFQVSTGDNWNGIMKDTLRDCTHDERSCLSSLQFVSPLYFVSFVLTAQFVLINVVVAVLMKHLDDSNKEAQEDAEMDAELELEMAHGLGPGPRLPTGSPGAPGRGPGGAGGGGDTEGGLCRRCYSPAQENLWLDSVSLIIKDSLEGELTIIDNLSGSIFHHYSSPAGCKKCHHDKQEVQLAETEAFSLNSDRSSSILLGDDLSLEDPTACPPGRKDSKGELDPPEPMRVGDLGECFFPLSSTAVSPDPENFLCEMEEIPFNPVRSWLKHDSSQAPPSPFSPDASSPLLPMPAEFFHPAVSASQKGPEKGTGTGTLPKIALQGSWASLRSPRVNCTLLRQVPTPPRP
Chain of α1I T-type calcium channel (Q9P0X4 1-1981 isoform Q9P0X4-3 I1005V): as above

Take `[Ca+2]` [Ca^2+]: the EC50 in test [1] (B21 cells induced by 0.1 μM tetracycline, read-out: EC50 of Ca^2+ influx after Ca^2+ addition) was 1000 µM.
Turning to `COCCOC(=O)C1=C(C)NC(C)=C(C(=O)OC(C)C)C1c1cccc([N+](=O)[O-])c1` (centres unmarked) [Nimodipine], in test [1], the IC50 came to 9.51 ± 0.788 µM.
For `O=c1[nH]c2ccccc2n1C1CCN(CCCC(c2ccc(F)cc2)c2ccc(F)cc2)CC1` [Pimozide], the IC50 in test [1] was 1 ± 0.109 µM. Further, the “% Inhibition (Ave ± SEM) of peak calcium current” value in test [2] (100 nM antagonist, −100 mV holding potential) stood at 32 ± 2%. Further, the potency estimated from few doses in test [2] (read-out: Est IC50) is 0.216 µM.
On to `CC1(C)OC(=O)NC1=O` [dimethadione], for which the “effect on T-type currents in thalamic neurons (in words)” value in test [3] is “partially depress”.
`CCC1(C)CC(=O)NC1=O` (centres unmarked) [ethosuximide]: the “effect on T-type currents in thalamic neurons (in words)” value in test [3] is given as “partially depress”. Further, the “effect on T-type Ca^2+ current in DRG neurons (in words)” value in test [4] is “fully block”.

As a reminder, the EC50 is the concentration that produces a half-maximal response. As usually defined, the IC50 is the concentration that inhibits the measured activity by half.
